In the NIST ThermoML archive (doi:10.1016/j.fluid.2005.09.009) one finds mass density and refractive index data, which are given here for three compounds.

The term mass density denotes mass per unit of volume. The term refractive index denotes the speed of light in vacuum divided by its phase velocity in the sample.

The conditions of data set [1]: 298.15 K; 101.33 kPa; Liquid.
Data set [2] can be described thus: refractive index (Na D-line) (dimensionless). The following applies: 298.15 K; 101.33 kPa; Liquid; Standard Abbe refractometry.

SMILES strings stand for the structures. Numbers after ± are expanded uncertainties.

Turning to `C=CC(C)(O)CCC=C(C)C` (stereo not given) [3,7-dimethyl-1,6-octadien-3-ol], in data set [1], the mass density is reported as 858.08 ± 2.2 kg/m3. Also, the refractive index in data set [2] is listed as 1.4595 ± 0.0009.

Regarding `CCO` [ethanol], in data set [1], the mass density was 785.12 ± 0.31 kg/m3. In addition, the refractive index in data set [2] is recorded as 1.3593 ± 0.0007. As to `O` [water], the refractive index in data set [2] stood at 1.3325 ± 0.0008.
